pIC50: −log10 of the molar value.

The target of this assay is AT2 Receptor (AT2R) (Homo sapiens (Human), UniProt P50052). The assay is described as follows: Measurement of inhibitory activity on AT2 receptor (Tag-lite HTRF, Tb-labeled AT2R cells, angiotensin receptor red agonist). It counts as binding. Conditions: 1 h room temperature. How it is done:
Measurement of Inhibitory Activity on AT1 Receptor ([…])/AT2 Receptor (AT2R)
Through the following steps, the inhibitory activity of the compound on AT1R/AT2R (IC50 value) was determined:
1) An appropriate amount of 1×TLB (Tag-lite Buffer) was prepared and well mixed for use.
2) The compound was diluted by 10 times with ddH2O or DMSO. The compound was then dilute to 4 times of the working concentration with 1×TLB and mixed well for use.
3) 8600 nM Tag-lite angiotensin receptor red agonist was diluted to 12 nM (4×Kd) with 1×TLB.
4) 5 ml 1×TLB was taken into a 15 ml centrifuge tube.
5) After thawing 1 tube of Tb-labeled AT1R/AT2R cells in a 37° C. water bath, the cells were quickly transferred to the 1×TLB in step 4), mixed gently, and centrifuged at 1200 g for 5 minutes at room temperature.
6) The supernatant was aspirated gently, and the cells were resuspended and mixed in 2.7 ml 1×TLB, and then placed at room temperature until use.
7) 10 μl cells were added to all test wells, and 5 μl 4× working solution of the compound from step 2) was added to the corresponding test wells. 5 μl 4× Tag-lite angiotensin receptor red agonist well diluted in step 3) was added to all test wells.
8) After leaving the reaction plate at room temperature for 1 h, data were measured and analyzed using Envision HTRF Reader, and the half inhibitory concentration (IC50) of the compound on AT1R/AT2R was calculated with the GraphPad Prism four-parameter equation.
Background: TR-FRET usually uses a lanthanide donor and a delayed reading to cut background.

Chain of AT2 Receptor (AT2R) (P50052 whole entry): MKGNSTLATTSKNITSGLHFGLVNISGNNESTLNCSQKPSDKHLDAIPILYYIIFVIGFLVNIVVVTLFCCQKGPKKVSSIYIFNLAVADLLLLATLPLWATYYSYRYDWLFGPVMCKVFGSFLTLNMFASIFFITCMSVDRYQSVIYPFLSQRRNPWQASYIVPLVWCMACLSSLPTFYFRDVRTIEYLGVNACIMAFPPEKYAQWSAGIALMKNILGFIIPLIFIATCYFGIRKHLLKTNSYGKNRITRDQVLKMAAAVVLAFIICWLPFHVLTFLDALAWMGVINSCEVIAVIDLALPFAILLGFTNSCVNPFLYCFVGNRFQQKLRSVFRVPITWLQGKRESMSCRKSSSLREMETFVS

The molecule `CC(NC(=O)N1[C@H]2CC[C@@H]1[C@@H](C(=O)O)N(C(=O)N(c1ccccc1)c1ccccc1)C2)c1ccccc1` (stereo partly drawn) [Compound C117, (1R,2S,5S)-3-(diphenylcarbamoyl)-8-((1-phenylethyl)carbamoyl)-3,8-diazabicyclo [3.2.1]octane-2-carboxylic acid] showed a pIC50 of 7.21.
Molecule `O=C(O)[C@@H]1[C@H]2CC[C@@H](CN1C(=O)C(c1ccccc1)c1ccccc1)N2C(=O)OCc1c(F)cccc1F` [Compound C36, (1R,2S,5S)-8-(((2,6-diflurorbenzyl)oxy)carbonyl)-3-(2,2-diphenylacetyl)-3,8-diazabicyclo [3.2.1]octane-2-carboxylic acid] showed a pIC50 of 7.68.
With `CN(C)S(=O)(=O)NC(=O)[C@@H]1[C@H]2CC[C@@H](CN1C(=O)C(c1ccccc1)c1ccccc1)N2C(=O)OCc1ccccc1` [Compound C233] the figure was 6.99.
With `O=C(O)[C@@H]1[C@H]2CC[C@@H](CN1C(=O)N(c1ccccc1)c1ccccc1)N2C(=O)Oc1ccccc1` [Compound C115, (1R,2S,5S)-3-(diphenylcarbamoyl)-8-(phenoxycarbonyl)-3,8-diazabicyclo [3.2.1]octane-2-carboxylic acid] the figure was 6.37.
The molecule `O=C(O)[C@@H]1[C@H]2CC[C@@H](CN1C(=O)N(c1ccccc1)c1ccccc1)N2C(=O)N(Cc1ccccc1)CC1CC1` [Compound C154, (1R,2S,5S)-8-(benzyl (cyclopropylmethyl)carbamoyl)-3-(diphenylcarbamoyl)-3,8-diazabicyclo [3.2.1]octane-2-carboxylic acid] showed a pIC50 of 7.70.
Molecule `CCN(Cc1ccoc1)C(=O)N1[C@H]2CC[C@@H]1[C@@H](C(=O)O)N(C(=O)N(c1ccccc1)c1ccccc1)C2` [Compound C260, (1R,2S,5S)-3-(diphenylcarbamoyl)-8-(ethyl (furan-3-ylmethyl)carbamoyl)-3,8-diazabicyclo [3.2.1]octane-2-carboxylic acid] had a pIC50 of 7.53.
Molecule `O=C(O)[C@@H]1[C@H]2CC[C@@H](CN1C(=O)N(c1ccccc1)c1ccccc1)N2C(=O)N1CCc2ccccc2C1` [Compound C131, (1R,2S,5S)-3-(diphenylcarbamoyl)-8-(1,2,3,4-tetrahydroisoquinoline-2-carbonyl)-3,8-diazabicyclo [3.2.1]octane-2-carboxylic acid] had a pIC50 of 6.31.
In turn, `CC(c1ccsc1)N(C)C(=O)N1[C@H]2CC[C@@H]1[C@@H](C(=O)O)N(C(=O)N(c1ccccc1)c1ccccc1)C2` (stereo partly drawn) [Compound C229, (1R,2S,5S)-3-(diphenylcarbamoyl)-8-(methyl (1-(thiophene-3-yl)ethyl)carbamoyl)-3,8-diazabicyclo[3.2.1] octane-2-carboxylic acid] showed a pIC50 of 8.00.
With `CN(Cc1ccc(F)cc1)C(=O)N1[C@H]2CC[C@@H]1[C@@H](C(=O)O)N(C(=O)N(c1ccccc1)c1ccccc1)C2` [Compound C161, (1R,2S,5S)-3-(diphenylcarbamoyl)-8-((4-fluorobenzyl) (methyl)carbamoyl)-3,8-thazabicyclo [3.2.1]octane-2-carboxylic acid] the figure was 7.52; with `CCN(Cc1csc(Cl)c1)C(=O)N1[C@H]2CC[C@@H]1[C@@H](C(=O)O)N(C(=O)N(c1ccccc1)c1ccccc1)C2` [Compound C274, (1R,2S,5S)-8-(((5-chlorothiophene-3-yl)methyl) (ethyl)carbamoyl)-3-(diphenylcarbamoyl)-3,8-diazabicyclo [3.2.1]octane-2-carboxylic acid], 7.70; with `O=C(O)[C@H]1[C@@H]2CC[C@H](CN1C(=O)OCc1ccccc1)N2C(=O)C(c1ccccc1)c1ccccc1` [Compound C75, (1S,2R,5R)-3-((benzyloxy)carbonyl)-8-(2,2-diphenylacetyl)-3,8-diazabicyclo[3. 2.1]octane-2-carboxylic acid], 7.27.
With `O=C(O)[C@@H]1[C@H]2CC[C@@H](CN1C(=O)N(c1ccccc1)c1ccccc1)N2C(=O)N(Cc1ccccc1)c1ccccc1` [Compound C134, (1R,2S,5S)-8-(benzyl(phenyl)carbamoyl)-3-(diphenylcarbamoyl)-3,8-diazabicyclo [3.2.1]octane-2-carboxylic acid] the figure was 6.49; with `CN(Cc1cccc(Cl)c1)C(=O)N1[C@H]2CC[C@@H]1[C@@H](C(=O)O)N(C(=O)N(c1ccccc1)c1ccccc1)C2` [Compound C151, (1R,2S,5S)-8-((3-chlorobenzyl) (methyl)carbamoyl)-3-(diphenylcarbamoyl)-3,8-diazabicyclo [3.2.1]octane-2-carboxylic acid], 7.13; with `CN(Cc1cc2ccccc2s1)C(=O)N1[C@H]2CC[C@@H]1[C@@H](C(=O)O)N(C(=O)N(c1ccccc1)c1ccccc1)C2` [Compound C271], 7.84.
Consider `O=C(O)[C@@H]1[C@@H]2CC[C@@H](CC2OCc2cccc(Cl)c2)N1C(=O)C(c1ccccc1)c1ccccc1` (stereo partly drawn) [Compound C291, (1S,3S,4S)-5-((3-chloro-benzyl)oxy)-2-(2,2-diphenylacetyl)-2-azabicyclo [2.2.2]octane-3-carboxylic acid], for which the pIC50 is 6.12.
With `CN(Cc1ccc(C(F)(F)F)cc1)C(=O)N1[C@H]2CC[C@@H]1[C@@H](C(=O)O)N(C(=O)N(c1ccccc1)c1ccccc1)C2` [Compound C169] the figure was 8.14; with `O=C(O)[C@@H]1[C@H]2CC[C@@H](CN1C(=O)N(c1ccccc1)c1ccccc1)N2C(=O)N(Cc1ccccc1)CC(F)(F)F` [Compound C128, (1R,2S,5S)-8-(benzyl(2,2,2-trifluoroethyl)carbamoyl)-3-(diphenylcarbamoyl)-3,8-diazabicyclo [3.2.1]octane-2-carboxylic acid], 7.67.
Take `O=C(O)[C@@H]1[C@H]2CC[C@@H](CN1C(=O)N(c1ccccc1)c1ccccc1)N2C(=O)N(c1ccccc1)c1ccccc1` [Compound C41, (1R,2S,5S)-3,8-bis (diphenylcarbamoyl)-3,8-diazabicyclo [3.2.1]octane-2-carboxylic acid]: the negative logarithm of the IC50 (pIC50) is 8.01.
The molecule `O=C(O)[C@@H]1[C@H]2CC[C@@H](CN1C(=O)N(c1ccccc1)c1ccccc1)N2C(=O)c1ccccc1-c1ccccc1` [Compound C240, (1R,2S,5S)-8-([1,1′-biphenyl]-2-carbonyl)-3-(diphenylcarbamoyl)-3,8-diazabicyclo [3.2.1]octane-2-carboxylic acid] had a pIC50 of 6.95.
`Cc1cc(CN(C)C(=O)N2[C@H]3CC[C@@H]2[C@@H](C(=O)O)N(C(=O)C(c2ccccc2)c2ccccc2)C3)cs1` [Compound C277, (1R,2S,5S)-3-(2,2-diphenylacetyl)-8-(methyl((5-methylthiophen-3-yl)methyl)carbamoyl)-3,8-diazabicyclo [3.2.1]octane-2-carboxylic acid] gave a pIC50 of 7.98.
With `CCN(Cc1ccc(C)s1)C(=O)N1[C@H]2CC[C@@H]1[C@@H](C(=O)O)N(C(=O)C(c1ccccc1)c1ccccc1)C2` [Compound C278, (1R,2S,5S)-3-(2,2-diphenylacetyl)-8-(ethyl((5-methylthiophen-2-yl)methyl)carbamoyl)-3,8-diazabicyclo [3.2.1]octane-2-carboxylic acid] the figure was 7.98; with `Cn1cc(-c2ccccc2C(=O)N2[C@H]3CC[C@@H]2[C@@H](C(=O)O)N(C(=O)N(c2ccccc2)c2ccccc2)C3)cn1` [Compound C241, (1R,2S,5S)-3-(diphenylcarbamoyl)-8-(2-(1-methyl-1H-pyrazole-4-yl)benzoyl)-3,8-diazabicyclo [3.2.1]octane-2-carboxylic acid], 6.81; with `CN(Cc1cccnc1)C(=O)N1[C@H]2CC[C@@H]1[C@@H](C(=O)O)N(C(=O)N(c1ccccc1)c1ccccc1)C2` [Compound C124, (1R,2S,5S)-3-(diphenylcarbamoyl)-8-(methyl(pyridine-3-ylmethyl)carbamoyl)-3,8-diazabicyclo [3.2.1]octane-2-carboxylic acid], 7.42.
With `O=C(O)[C@@H]1[C@H]2CC[C@@H](CN1C(=O)C(c1ccccc1)c1ccccc1)N2C(=O)N1c2ccccc2C=Cc2ccccc21` [Compound C9, (1R,2S,5S)-8-(5H-dibenzo[b,f]azepine-5-carbonyl)-3-(2,2-diphenylacetyl)-3,8-diazabicyclo [3.2.1]octane-2-carboxylic acid] the figure was 6.97; with `CCN(Cc1sccc1C)C(=O)N1[C@H]2CC[C@@H]1[C@@H](C(=O)O)N(C(=O)N(c1ccccc1)c1ccccc1)C2` [Compound C272, (1R,2S,5S)-3-(diphenylcarbamoyl)-8-(ethyl((3-methylthiophen-2-yl)methyl)carbamoyl)-3,8-diazabicyclo [3.2.1]octane-2-carboxylic acid], 7.78; with `O=C(O)[C@@H]1[C@H]2CC[C@@H](CN1C(=O)N(c1ccccc1)c1ccccc1)N2C(=O)CCc1ccccc1` [Compound C221, (1R,2S,5S)-3-(diphenylcarbamoyl)-8-(3-phenylpropionyl)-3,8-diazabicyclo [3.2.1]octane-2-carboxylic acid], 7.12.
With `O=C(O)[C@@H]1[C@H]2CC[C@@H](CN1C(=O)N(c1ccccc1)c1ccccc1)N2C(=O)N1CCN(c2ccccc2)CC1` [Compound C132, (1R,2S,5S)-3-(diphenylcarbamoyl)-8-(4-phenylpiperazine-1-carbonyl)-3,8-diazabicyclo[3.2.1] octane-2-carboxylic acid] the figure was 6.32.

The pIC50 is the IC50 on a negative log10 scale, so that one unit is a factor of ten. A high value points to a low IC50.

Source of the values: patent publication US11453690B2, “Receptor inhibitor, pharmaceutical composition comprising same, and use thereof” (BEIJING TIDE PHARMACEUTICAL CO., LTD., priority 2018, dated 2022).
